In patent US20240287048A1, “SUBSTITUTED ACYL SULFONAMIDES FOR TREATING CANCER” (The Broad Institute, Inc., priority 2020, published 2024):

How the values were obtained:
KAT6A = target: T1, KAT6A (Homo sapiens, UniProt Q92794); assay: Kat6a activity assay (TR-FRET, acetylation of biotinylated histone H4 peptide); format: biochemical; details: recombinant human His-tagged Kat6a (amino acids 194-810), 60 mins at 22° C., read-out: KAT6A-DPF/HAT domain IC50 [mol/l] (arithmetic mean)
T1 construct: Recombinant human His-tagged Kat6a protein (amino acids 194-810); His; made in house; host or cells: Baculovirus-infected Sf9 insect cells
Source text: Kat6a inhibitory activities of the compounds described in the present invention were quantified using a Fluorescence Resonance Energy Transfer (TR-FRET) assay which measures acetylation of a synthetic, biotinylated Histone-H4-derived peptide by the enzyme.
Recombinant human His-tagged Kat6a protein (amino acids 194-810), was purified in-house from Baculovirus-infected insect cells (Sf9). Histone H4 peptide (amino acids 1-24, […]-VLRD-K(Btn)-amide), which was used as substrate, was synthesized by Biosyntan GmbH, Berlin, Germany. Acetyl Coenzyme A was purchased from Sigma-Aldrich (#A-2056).
Kat6a was incubated for 60 mins at 22° C. in the presence of different concentrations of test substances (0 μM, and within the range 0.01-20 μM) in assay buffer [25 mM Tris/HCl pH 8, 1 mM EGTA, 2.5 mM Glutathion, 0.02% Chicken Albumin, 0.05% Pluronic F127, 25 mM NaCl, 220 nM H4 peptide and 600 nM Acetyl Coenzyme A].
The reaction was stopped by addition of Detection Solution (25 mM HEPES pH 7.5, 0.1% BSA, 22 nM SAXL665 (Cisbio #610SAXLE), 100 μM Anacardic Acid (Enzo #ALX-270-381), 1 nM Anti-Histone H4 (ACETYL K8) Antibody (ABCAM #AB15823) and 0.5 nM Anti-Rabbit IgG Eu (Perkin Elmer #AD0083).
The fluorescence emission at 620 nm and 665 nm after excitation at 330-350 nm was measured in a TR-FRET measuring instrument, for instance a Rubystar or a Pherastar (both from BMG Lab Technologies, Offenburg, Germany) or a Viewlux (Perkin-Elmer). The ratio of the emission at 665 nm and at […] was used as indicator of the amount of acetylated peptide.
The resulting data (ratio) were normalized, taking 0% inhibition as the mean value of control measurements where all reagents were included. In this case 50 nl DMSO were used instead of compounds. […] IC50 values were determined by regression analysis based on a 4 parameter equation (minimum, maximum, ICM, Hill; Y=Max+(Min−Max)/(1+(X/ICso) Hill) using the Screener Software (Genedata).

ZR-75-1 cells = assay: Proliferation assay in ZR-75-1 cells; format: cell-based; details: Homo sapiens, 144 h, Alamar Blue, read-out: ZR75-1 proliferation assay, EC50[M] (arithmetic mean)
Source text: (§1) For compound characterization cell survival assays were routinely run in two cell lines. ZR-75-1 is a breast carcinoma cell line containing a focal KAT6A amplification and high KAT6A protein expression. Proliferation of this cell line is inhibited upon treatment with KAT6A inhibitors. As a negative control cell line MDA-MB-436 were used. These cells carry a […] deletion of the KAT6A gene, have a low KAT6A protein expression and are not growth inhibited upon treatment with KAT6A inhibitors.
(§2) For measurements cell lines were plated at the below indicated concentration per […] in 96-well plates in a humidified incubator at 37° C. and 5% CO2.
(§3) ZR-75-1 (ATCC, CRL-1500; breast carcinoma); 3000 cells per well; culture medium: RPMI 1640 (Biochrom #FG 1215) medium containing 2.5% FBS (Biochrom #S0615). LCLC-97TM1 (DSMZ, ACC 388; large cell lung carcinoma); 6000 cells per well; culture medium: RPMI 1640 (Biochrom #FG 1215) medium containing 2.5% FBS (Biochrom #S0615). MDA-MB-436 (CLS, 300278; breast adenocarcinoma); 3000 cells per well; culture medium: DMEM/Ham's F12 (Biochrom #FG 4815) medium containing 2.5% FBS (Biochrom #S0615).
(§4) Each sample was prepared as triplicate and rim wells were excluded. Plates were incubated at 37° C. and 5% CO2 for 144 h. Cell viability was measured by adding 10 μL of Alamar Blue Reagent (Invitrogen #DAL 1100) and plates were incubated for 2 h at 37° C. and 5% CO2. Fluorescence was measured at 590 nm wavelength with a Tecan Spark or Victor X3 MTP-Reader (PerkinElmer).

MDA-MB-436 cells = assay: Proliferation assay in MDA-MB-436 cells (negative control cell line); format: cell-based; details: Homo sapiens, 144 h, Alamar Blue, read-out: MDA-MB-436 proliferation assay, EC50[M] (arithmetic mean)
Source text: as §1, §2, §3, §4

[1] = system: ESR1 transcription in MVLN cells; assay: Repression of ESR1 transcription, MVLN luciferase reporter assay; format: cell-based; details: Homo sapiens, luciferase signal after 24 h, read-out: MVLN reporter assay, IC50[M] (arithmetic mean)
Source text: KAT6A controls transcription of the ESR1 gene in breast cancer cells. Compound treatment that interferes with this mechanism was quantified using MVLN cells. These cells constitutively express the ER and are stably transfected with the luciferase (LUC) reporter gene and the corresponding hormone responsive element derived from the 5′-flanking region of the Xenopus Vitellogenin A2 gene (Pons et al., 1990, Demirpense et al., 1993, Joyeux et al., 1993). The repressive effect on ERα transcription activity of a test chemical is directly related to the luciferase measured in the lysate of treated MVLN cells.
Each sample was prepared as duplicate and rim wells were excluded. For luciferase signal determination 100 μl of a 1:1 mixture of Steadylite plus (Perkin Elmer; 6016759) and assay medium was added after 24 h for 15 minutes and measured in Victor X3 (Perkin Elmer). To exclude any effects caused by cell loss during the treatment, cell density was determined using Alamar Blue (Invitrogen; DAL1100). Prior to the luciferase measurement 10 μl Alamar Blue were added to each well and the plates were incubated for 2 h in the incubator. Then fluorescence was measured with Victor X3 (Perkin Elmer) at 530 nm/590 nm.

LCLC-97TM1 cells = assay: Proliferation assay in LCLC-97TM1 cells; format: cell-based; details: Homo sapiens, 144 h, Alamar Blue, read-out: LCLC97TM1 proliferation assay, EC50[M] (arithmetic mean)
Procedure: as §2, §3, §4

T1 sequence (Q92794 194-810): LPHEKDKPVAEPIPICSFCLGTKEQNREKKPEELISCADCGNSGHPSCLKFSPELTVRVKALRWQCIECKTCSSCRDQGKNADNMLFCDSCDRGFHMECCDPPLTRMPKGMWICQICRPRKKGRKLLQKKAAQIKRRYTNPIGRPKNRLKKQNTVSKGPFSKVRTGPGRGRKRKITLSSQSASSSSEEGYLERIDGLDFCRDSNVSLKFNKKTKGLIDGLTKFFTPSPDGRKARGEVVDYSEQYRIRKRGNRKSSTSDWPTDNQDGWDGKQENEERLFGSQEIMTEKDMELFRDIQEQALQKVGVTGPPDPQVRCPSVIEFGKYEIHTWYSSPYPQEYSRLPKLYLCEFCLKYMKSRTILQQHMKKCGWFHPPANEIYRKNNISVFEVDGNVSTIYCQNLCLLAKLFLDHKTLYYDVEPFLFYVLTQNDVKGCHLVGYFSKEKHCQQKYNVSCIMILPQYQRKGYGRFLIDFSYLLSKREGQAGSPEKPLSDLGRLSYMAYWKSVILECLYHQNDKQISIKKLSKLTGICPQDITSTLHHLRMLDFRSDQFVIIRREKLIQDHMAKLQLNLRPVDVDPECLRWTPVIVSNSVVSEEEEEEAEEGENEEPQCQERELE

| Structure (SMILES) | IC50 (KAT6A) [µM] | EC50 (MDA-MB-436 cells) [M] | IC50 [1] [M] | EC50 (ZR-75-1 cells) [M] | EC50 (LCLC-97TM1 cells) [M] |
| --- | --- | --- | --- | --- | --- |
| O=C(O)c1ccc2cc(C(=O)NS(=O)(=O)c3ccccc3-c3ccccc3)oc2c1 [Example 5, 2-[([1,1′-biphenyl]-2-sulfonyl)carbamoyl]-1-benzofuran-6-carboxylic acid] | 5.75 | > 2e-05 | > 2e-05 | > 2e-05 |  |
| CN(C)C(=O)c1ccc2cc(C(=O)NS(=O)(=O)c3ccccc3-c3ccccc3)oc2c1 [Example 8, N^2-([1,1′-biphenyl]-2-sulfonyl)-N^6,N^6-dimethyl-1-benzofuran-2,6-dicarboxamide] | 17.3 | > 2e-05 | > 2e-05 | > 2e-05 |  |
| O=C(NS(=O)(=O)c1ccccc1-c1ccccc1)c1cc2ccc(C3CC3)c(F)c2o1 [Example 15, N-([1,1′-biphenyl]-2-sulfonyl)-6-cyclopropyl-7-fluoro-1-benzofuran-2-carboxamide] | 0.908 | > 2e-05 | 6.75e-06 | 8.42e-06 | > 2e-05 |
| Cc1ccc2cccc(S(=O)(=O)NC(=O)c3cc4ccc(C(F)(F)F)cc4o3)c2n1 [Example 19, N-(2-Methylquinoline-8-sulfonyl)-6-(trifluoromethyl)-1-benzofuran-2-carboxamide] | 0.729 | > 2e-05 | 3.63e-06 | 4.94e-06 | > 2e-05 |
| O=C(NS(=O)(=O)c1ccccc1-c1ccccc1)c1cc2ccc(-c3ccncc3)cc2o1 [Example 20, N-([1,1′-Biphenyl]-2-sulfonyl)-6-(pyridin-4-yl)-1-benzofuran-2-carboxamide] | > 20 | > 2e-05 |  | 3.49e-06 |  |
| CN(C)c1cc(C2CC2)cc2oc(C(=O)NS(=O)(=O)c3ccccc3)cc12 [Example 42, N-(Benzenesulfonyl)-6-cyclopropyl-4-(dimethylamino)benzofuran-2-carboxamide] | 0.417 | > 2e-05 | > 2e-05 | > 2e-05 | > 2e-05 |
| CCOc1ccccc1S(=O)(=O)NC(=O)c1cc2c(C(F)(F)F)cc(C3CC3)cc2o1 [Example 51, 6-Cyclopropyl-N-(2-ethoxyphenyl)sulfonyl-4-(trifluoromethyl)benzofuran-2-carboxamide] | 0.0256 |  | 2.98e-06 | 9.14e-06 |  |
| CC(C)c1ccc2cc(C(=O)NS(=O)(=O)c3ccc(Cl)cc3Cl)oc2c1 [Example 57, N-(2,4-Dichlorobenzenesulfonyl)-6-(propan-2-yl)-1-benzofuran-2-carboxamide] |  | > 2e-05 | 1.21e-05 | > 2e-05 |  |

Further lines, with some results ahead:

| IC50 (KAT6A) [µM] | EC50 (MDA-MB-436 cells) [M] | IC50 [1] [M] | Structure (SMILES) | EC50 (ZR-75-1 cells) [M] | EC50 (LCLC-97TM1 cells) [M] |
| --- | --- | --- | --- | --- | --- |
| > 20 | > 2e-05 |  | N#Cc1ccc2cc(C(=O)NS(=O)(=O)c3ccccc3-c3ccccc3)oc2c1 [Example 3, N-([1,1′-biphenyl]-2-sulfonyl)-6-cyano-1-benzofuran-2-carboxamide] | > 2e-05 |  |
| 15.2 | > 2e-05 | 1.98e-05 | O=C(NS(=O)(=O)c1ccccc1-c1ccccc1)c1cc2ccc(-c3cccnc3)cc2o1 [Example 4, N-([1,1′-biphenyl]-2-sulfonyl)-6-(pyridin-3-yl)-1-benzofuran-2-carboxamide] | > 2e-05 | > 2e-05 |
| 0.459 | > 2e-05 | 4.11e-06 | Cc1ccc2c(C)c(C(=O)NS(=O)(=O)c3ccccc3-c3ccccc3)oc2c1 [Example 14, N-([1,1′-biphenyl]-2-sulfonyl)-3,6-dimethyl-1-benzofuran-2-carboxamide] | 8.7e-06 | 9.97e-06 |
| 0.827 | > 2e-05 | 5.56e-06 | CCOc1ccccc1S(=O)(=O)NC(=O)c1oc2cc(C)ccc2c1C [Example 18, N-(2-Ethoxybenzene-1-sulfonyl)-3,6-dimethyl-1-benzofuran-2-carboxamide] | 5.01e-06 | 1.06e-05 |
|  | > 2e-05 |  | C=C(C)c1ccc2cc(C(=O)NS(=O)(=O)c3ccccc3-c3ccccc3)oc2c1 [Example 23, N-([1,1′-biphenyl]-2-sulfonyl)-6-(prop-1-en-2-yl)-1-benzofuran-2-carboxamide] | 1.15e-06 |  |
| 0.00184 | > 2e-05 | 7.41e-08 | CCOc1ccc(C(C)CC)cc1S(=O)(=O)NC(=O)c1cc2c(F)cc(C3CC3)cc2o1 (stereo not drawn) [Example 29, 6-Cyclopropyl-N-(2-ethoxy-5-sec-butyl-phenyl)sulfonyl-4-fluoro-benzofuran-2-carboxamide] | 8.86e-08 | 2.77e-07 |
| 0.078 | > 2e-05 | 1.06e-05 | O=C(NS(=O)(=O)c1ccc(Cl)cc1Cl)c1cc2c(F)cc(C3CC3)cc2o1 [Example 37, 6-Cyclopropyl-N-(2,4-dichlorophenyl)sulfonyl-4-fluoro-benzofuran-2-carboxamide] | 6.28e-06 | > 2e-05 |
| 0.0173 | > 2e-05 | 1e-06 | O=C(NS(=O)(=O)c1ccccc1-c1ccccc1)c1cc2c(F)cc(C3CC3)cc2o1 [Example 38, 6-Cyclopropyl-4-fluoro-N-(2-phenylphenyl)sulfonyl-benzofuran-2-carboxamide] | 9.57e-07 | 3.21e-06 |
| 0.0707 | > 2e-05 | 4.57e-06 | O=C(NS(=O)(=O)c1ccccc1)c1cc2c(F)cc(C3CC3)cc2o1 [Example 39, N-(Benzenesulfonyl)-6-cyclopropyl-4-fluoro-benzofuran-2-carboxamide] | 3.21e-06 | > 2e-05 |
| 0.138 |  | 1.88e-05 | O=C(NS(=O)(=O)c1ccccc1)c1cc2c(C(F)(F)F)cc(C3CC3)cc2o1 [Example 52, N-(Benzenesulfonyl)-6-cyclopropyl-4-(trifluoromethyl)benzofuran-2-carboxamide] | 7.32e-06 |  |
| 0.043 |  | 6.16e-06 | O=C(NS(=O)(=O)c1ccccc1-c1ccccc1)c1cc2c(C(F)(F)F)cc(C3CC3)cc2o1 [Example 53, 6-Cyclopropyl-N-(2-phenylphenyl)sulfonyl-4-(trifluoromethyl)benzofuran-2-carboxamide] | > 2e-05 |  |
